Experimental data taken from PMC11403280, “Subclass IId bacteriocins targeting mannose phosphotransferase system—Structural diversity and implications for receptor interaction and antimicrobial activity” (PNAS Nexus, 2024).
Read-outs that look alike come from different tables or passages of the source. Ends that are not written are not given here.

What was measured:
[1] = test system: Spontaneous Man-PTS mutants of L. lactis IL1403; experiment: 2-fold serial dilutions sensitivity assay, Table S3; format: cell-based, Lactococcus lactis
Text: (§1) To identify the individual amino acid residues of Man-PTS required for the sensitivity to the newly defined bacteriocins, and thus probably involved in their interaction with the receptor, spontaneous mutants of L. lactis IL1403 and L. garvieae IBB3403 with resistance to individual bacteriocins and preserved Man-PTS functionality were selected. Out of the nine new bacteriocins, five (GarAG3, RhmB, LcnC, EntG1, and MurA) were potent enough to produce resistant mutants in their presence. In total, 34 resistant L. lactis IL1403 mutants were obtained, including three selected in the presence of RhmB, 15 in the presence of EntG1, 2—LcnC, and 14—MurA; 38 resistant L. garvieae IBB3403 mutants were obtained in the presence of GarAG3 (Table S1). They were 4- to over 1,024-fold less sensitive to the bacteriocin used for the selection than the parental strain and carried, respectively, a combined total of 11 and 10 independent mutations in the ptnCD genes of L. lactis IL1403 and the manCD genes of L. garvieae IBB3403. Ten mutations in L. lactis led to amino acid substitutions in IIC (Gly62Val, Ala110Thr, Met120Ile, and Ala187Val) or IID (Gly126Ser, Ala127Thr, Ser214Leu, Gly221Cys, Tyr223Cys, and Gly229Val), and one led to the deletion of eight amino acids (221-228GlyAlaTyrLeuGluPheProLys) in IID.
(§2) The activity of peptides of interest against indicator strains and L. garvieae IBB3403- or L. lactis IL1403-derived strains was determined using the spot-on-lawn assay as described previously ([7]). Spontaneous bacteriocin-resistant mutants were selected by growing L. garvieae IBB3403 or L. lactis IL1403 in the presence of a bacteriocin in CDM ([43]) supplemented with 1% mannose (Man-CDM) as described previously ([7]). GarAG3-resistant L. garvieae IBB3403 mutants (LG1—LG32, LG34–LG38, and LG40) were selected at the bacteriocin concentration of 0.024 µg/mL. L. lactis IL1403 mutants resistant to EntG1 (LLG1–LLG3, LLG7–LLG9, LLG11, LLG12, LLG14, LLG19, LLG21, LLG25, LLG32, LLG46, and LLG50), RhmB (LLB2, LLB3, and LLB17), MurA (LLA1, LLA7, LLA8, LLA12, LLA19–LLA22, LLA24, and LLA26–LLA30), and LcnC (LLC1, LLC2) were selected at bacteriocin concentrations of 12.5µg/mL, 1.56µg/mL, 1.56 µg/mL, and 4 ng/mL, respectively. The sensitivity of the mutants was determined using 2-fold serial dilutions assay as described previously ([7]).
Table S3. Spontaneous mutants of L. lactis IL1403 resistant to RhmB, EntG1, LcnC, MurA, GarQ, BacSJ, ubericin K, and GarC
(§3) Sensitivity to Position in the cell
(§4) Mutant strain Mutation Amino acid change [fold-decreased relative to WT] membrane of affected
RhmB EntG1 LcnC MurA GarQ BacSJ Ubericin GarC Man-PTS amino acid(s)
mutations GlyAlaTyrLeuGluPheProLys
“>” substitution; “del”deletion

[2] = test system: Spontaneous Man-PTS mutants of L. garvieae IBB3403; experiment: 2-fold serial dilutions sensitivity assay, Table S4; format: cell-based, Lactococcus garvieae
Text: as §1, §2
Table S4. Spontaneous mutants of L. garvieae IBB3403 resistant to GarAG3, GarA, GarB, GarC, GarQ, MurA, and ubericin K
as §3, §4
GarAG3 GarA GarB GarC GarQ MurA Ubericin Man-PTS amino acid(s)
LG9 manD: 800G>T ManD: Gly267Val 16x 0x 8x 2x 4x 0.5x 4x extracellular (region γ+)
TTGTTGGTAACG 262_265delAsnValValGly
GTAACGGTGTTG 265_268delGlyAsnGlyVal
LGA10 manD: 173C>A ManD: Ala58Asp 8x 2x 4x 4x 2x 2x 8x transmembrane (HP2a)
5 μl of each bacteriocin at a concentration of 1 mg/ml was used; “>” substitution; “del”deletion; “ins” insertion

[3] = test system: Vero, HepG2, and Caco-2 cell lines; details: ref [36], [37], cited from earlier work
Text: The use of bacteriocins as antibacterial agents offers a promising solution to some of the most challenging public health problems today, such as the emergence of difficult-to-treat infections caused by antibiotic-resistant pathogens ([29]) or the breakouts of foodborne diseases ([30]). Here, we have identified nine new bacteriocins of which five (MurA, MsnC, RhmB, AglA, and LcbC) could have potential in the treatment of infections caused by vancomycin-resistant Enterococcus faecium and Enterococcus faecalis strains ([31]), and four (MurA, MsnC, RhmB, and AglA) in the prevention of L. monocyto ...

[4] = biological target: Man-PTS membrane complex IICIID of L. garvieae (ManCD) (L. garvieae (endogenous in L. garvieae IBB3403))

## EYHLMNGANGYLTRVNGKYVYRVTKDPVSAVFGVISNGWGSAGAGFGPQH [GarQ]
[1]; LLA1 etc. (MurA-resistant), PtnC: Ala110Thr
  Sensitivity to [fold-decreased relative to WT]: 4 x
[1]; LLB2,LLB3, PtnD: Gly126Ser
  Sensitivity to [fold-decreased relative to WT]: 0 x
[1]; LLB17, PtnD: Ser214Leu
  Sensitivity to [fold-decreased relative to WT]: 256 x
[1]; LLC1, LLC2, PtnC: Gly62Val
  Sensitivity to [fold-decreased relative to WT]: 64 x
[1]; LLG1, LLG2, PtnD: 221-228del
  Sensitivity to [fold-decreased relative to WT]: 16 x
[1]; LLG3, LLG9, LLG11, LLG32, LLG46, PtnD: Gly229Val
  Sensitivity to [fold-decreased relative to WT]: 16 x
[1]; LLG7, LLG19, LLG21, PtnD: Ala127Thr
  Sensitivity to [fold-decreased relative to WT]: 8 x
[1]; LLG8, PtnD: Gly221Cys
  Sensitivity to [fold-decreased relative to WT]: 16 x
[1]; LLG12, LLG14, PtnC: Ala187Val
  Sensitivity to [fold-decreased relative to WT]: 8 x
[1]; LLG25, PtnD: Tyr223Cys
  Sensitivity to [fold-decreased relative to WT]: 16 x
[1]; LLG50, PtnC: Met120Ile
  Sensitivity to [fold-decreased relative to WT]: 4 x
[1]; LLN1, PtnD: Pro123His
  Sensitivity to [fold-decreased relative to WT]: > 1024 x
[1]; M6, PtnD: Arg200His
  Sensitivity to [fold-decreased relative to WT]: 8 x
[1]; M16, PtnD: Leu83Phe
  Sensitivity to [fold-decreased relative to WT]: 0 x
[1]; M19, PtnD: Phe226Ser
  Sensitivity to [fold-decreased relative to WT]: 8 x
[1]; M30, PtnD: Leu197Phe
  Sensitivity to [fold-decreased relative to WT]: 16 x
[2]; LG1 etc., ManD: Arg203Leu
  Sensitivity to [fold-decreased relative to WT]: 0 x
[2]; LG2, ManC: Gly60Cys
  Sensitivity to [fold-decreased relative to WT]: 32 x
[2]; LG6, ManD: Trp256Leu
  Sensitivity to [fold-decreased relative to WT]: 16 x
[2]; LG9, ManD: Gly267Val
  Sensitivity to [fold-decreased relative to WT]: 4 x
[2]; LG11, 13, 22, 28, ManD: Arg203Cys
  Sensitivity to [fold-decreased relative to WT]: 2 x
[2]; LG12, ManD: 262_265delAsnValValGly
  Sensitivity to [fold-decreased relative to WT]: 4 x
[2]; LG18, ManD: 265_268delGlyAsnGlyVal
  Sensitivity to [fold-decreased relative to WT]: 4 x
[2]; LG23, 29, ManC: Gly188Val
  Sensitivity to [fold-decreased relative to WT]: 4 x
[2]; LG32, ManD: Ser318Leu
  Sensitivity to [fold-decreased relative to WT]: 2 x
[2]; LG36, ManC: Gly60Val
  Sensitivity to [fold-decreased relative to WT]: 128 x
[2]; LGA2, ManC: Leu59Pro
  Sensitivity to [fold-decreased relative to WT]: 128 x
[2]; LGA3, ManC: Gly52Val
  Sensitivity to [fold-decreased relative to WT]: 4 x
[2]; LGA6, ManC:190_191insVal
  Sensitivity to [fold-decreased relative to WT]: 4 x
[2]; LGA10, ManD: Ala58Asp
  Sensitivity to [fold-decreased relative to WT]: 2 x
[2]; LGB6, ManD: Gln313Lys
  Sensitivity to [fold-decreased relative to WT]: 2 x
[2]; LGC1, ManD: Met34Ile
  Sensitivity to [fold-decreased relative to WT]: 0 x
[2]; LGC8, ManD: Tyr226Asp
  Sensitivity to [fold-decreased relative to WT]: 16 x
[2]; LGC13, ManC: Ala106Val
  Sensitivity to [fold-decreased relative to WT]: 4 x
[2]; LGC15, ManD: Ala133Val, Val315Met
  Sensitivity to [fold-decreased relative to WT]: 4 x
[2]; LGN1, ManD: Gly301Val
  Sensitivity to [fold-decreased relative to WT]: > 1024 x
[2]; LGN2, ManD: Ala133Val
  Sensitivity to [fold-decreased relative to WT]: 16 x
[2]; LGN9, ManC: Ala102Val
  Sensitivity to [fold-decreased relative to WT]: 16 x
[2]; PW202, ManC: Pro100His
  Sensitivity to [fold-decreased relative to WT]: > 1024 x
[2]; PW203, ManD: Thr123Ile
  Sensitivity to [fold-decreased relative to WT]: > 1024 x
[2]; PW204, ManD: Pro111Ser
  Sensitivity to [fold-decreased relative to WT]: > 1024 x
[3]; highly purified, concentrations up to 1 mg/mL
  Cytotoxicity: no cytotoxicity

## GarQ_(Asn9Gly) (peptide)
[4]
  minimum inhibitory concentration against L. garvieae IBB3403, fold decrease in activity relative to native GarQ: > 512 fold

## GarQ_(Tyr11Leu) (peptide)
[4]
  minimum inhibitory concentration against L. garvieae IBB3403, fold decrease in activity relative to native GarQ: > 512 fold

## PedPA-1: subclass IIa pediocin-like bacteriocin (KYYGNGVTCGKHSCSVDWGKATTCIINNGAMAWATGGHQGNHKC; ends and bridges not checked; cysteine pairing not given here; UniProt P29430 19-62, looked up)
[3]; up to 400 μg/mL
  Cytotoxicity: no cytotoxicity
